Test results: PubChem BioAssay AID248 (DTP/NCI, 2004)
Values joined by “and” are separate entries in the source; they are usually repeats but may differ in a detail not shown here. Identical values can stand only once. Inconclusive results and toxic doses are left out.

Tested on: L1210 leukemia ip in BDF1 mice, survival T/C
Experiment: NCI In Vivo Anticancer Drug Screen. Data for tumor model L1210 Leukemia (intraperitoneal) in B6D2F1 (BDF1) mice
Settings: endpoint: mean survival time, higher = longer survival
In short: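 Value reflects the ratio of survival in compound-treated mice to survival in vehicle-treated controls, with both groups carrying the same transplanted tumor.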

[1] = dose: 100.0 mg/kg/injection, schedule: Q04DX002 (ip), vehicle: Klucel (hydroxypropylcellulose) (HPC)
[2] = dose: 200.0 mg/kg/injection, schedule: Q04DX002 (ip), vehicle: Klucel (hydroxypropylcellulose) (HPC)
[3] = dose: 100.0 mg/kg/injection, schedule: Q04DX003 (ip), vehicle: saline with Tween-80
[4] = dose: 200.0 mg/kg/injection, schedule: Q04DX003 (ip), vehicle: saline with Tween-80
[5] = dose: 400.0 mg/kg/injection, schedule: Q04DX003 (ip), vehicle: saline with Tween-80
[6] = dose: 100.0 mg/kg/injection, schedule: Q01DX009 (ip), vehicle: saline with Tween-80
[7] = dose: 200.0 mg/kg/injection, schedule: Q01DX009 (ip), vehicle: saline with Tween-80
[8] = dose: 400.0 mg/kg/injection, schedule: Q01DX009 (ip), vehicle: saline with Tween-80
[9] = dose: 100.0 mg/kg/injection, schedule: Q01DX001 (ip), vehicle: saline
[10] = dose: 200.0 mg/kg/injection, schedule: Q01DX001 (ip), vehicle: saline
[11] = dose: 400.0 mg/kg/injection, schedule: Q01DX001 (ip), vehicle: saline
[12] = dose: 50.0 mg/kg/injection, schedule: Q01DX009 (ip), vehicle: saline with Tween-80

SMILES: C=C1CC(c2ccc(S(=O)(=O)N3CCOCC3)cc2)OC1=O (stereo not given)
- T/C (dose: 1.56 mg/kg/injection, schedule: Q01DX009 (ip), vehicle: Klucel (hydroxypropylcellulose) (HPC)): 94 % of control
- T/C (dose: 3.12 mg/kg/injection, schedule: Q01DX009 (ip), vehicle: Klucel (hydroxypropylcellulose) (HPC)): 106 % of control
- T/C (dose: 6.25 mg/kg/injection, schedule: Q01DX009 (ip), vehicle: Klucel (hydroxypropylcellulose) (HPC)): 106 % of control
- T/C (dose: 12.5 mg/kg/injection, schedule: Q01DX009 (ip), vehicle: Klucel (hydroxypropylcellulose) (HPC)): 105 % of control
- T/C (dose: 25.0 mg/kg/injection, schedule: Q01DX009 (ip), vehicle: Klucel (hydroxypropylcellulose) (HPC)): 93 % of control
- T/C [1]: 95 % of control
- T/C [2]: 113 % of control

SMILES: OCC1OC(n2cnc3c(=S)nc(NO)[nH]c32)C(O)C1O (stereo not given)
- T/C (dose: 12.5 mg/kg/injection, schedule: Q01DX005 (ip), vehicle: saline): 165 % of control
- T/C (dose: 50.0 mg/kg/injection, schedule: Q01DX005 (ip), vehicle: saline): 88 % of control
- T/C (dose: 100.0 mg/kg/injection, schedule: Q01DX005 (ip), vehicle: saline): 107 % of control

SMILES: Brc1ccccn1
- T/C (dose: 75.0 mg/kg/injection, schedule: Q01DX001 (ip), vehicle: saline): 105 % of control

SMILES: CSc1ccc(OC(=O)Nc2cccc(Cl)c2)cc1C
- T/C (dose: 100.0 mg/kg/injection, schedule: Q01DX001 (ip), vehicle: carboxymethylcellulose (CMC)): 94 % of control
- T/C (dose: 100.0 mg/kg/injection, schedule: Q01DX009 (ip), vehicle: carboxymethylcellulose (CMC)): 98 % of control
- T/C [1]: 101 % of control
- T/C (dose: 100.0 mg/kg/injection, schedule: Q04DX002 (ip), vehicle: carboxymethylcellulose (CMC)): 96 % of control and 101 % of control
- T/C (dose: 100.0 mg/kg/injection, schedule: Q04DX003 (ip), vehicle: carboxymethylcellulose (CMC)): 101 % of control
- T/C (dose: 200.0 mg/kg/injection, schedule: Q01DX001 (ip), vehicle: carboxymethylcellulose (CMC)): 97 % of control
- T/C (dose: 200.0 mg/kg/injection, schedule: Q01DX009 (ip), vehicle: carboxymethylcellulose (CMC)): 100 % of control and 106 % of control
- T/C [2]: 95 % of control
- T/C (dose: 200.0 mg/kg/injection, schedule: Q04DX002 (ip), vehicle: carboxymethylcellulose (CMC)): 95 % of control and 88 % of control
- T/C (dose: 200.0 mg/kg/injection, schedule: Q04DX003 (ip), vehicle: carboxymethylcellulose (CMC)): 94 % of control
- T/C (dose: 400.0 mg/kg/injection, schedule: Q01DX001 (ip), vehicle: carboxymethylcellulose (CMC)): 87 % of control
- T/C (dose: 400.0 mg/kg/injection, schedule: Q01DX009 (ip), vehicle: carboxymethylcellulose (CMC)): 93 % of control and 87 % of control
- T/C (dose: 400.0 mg/kg/injection, schedule: Q04DX002 (ip), vehicle: Klucel (hydroxypropylcellulose) (HPC)): 108 % of control
- T/C (dose: 400.0 mg/kg/injection, schedule: Q04DX002 (ip), vehicle: carboxymethylcellulose (CMC)): 95 % of control and 103 % of control
- T/C (dose: 400.0 mg/kg/injection, schedule: Q04DX003 (ip), vehicle: carboxymethylcellulose (CMC)): 92 % of control

SMILES: O=C(Nc1ccccc1)Nc1ccc(C(=O)CCl)cc1
- T/C (dose: 100.0 mg/kg/injection, schedule: Q01DX005 (ip), vehicle: saline with Tween-80): 96 % of control
- T/C [3]: 102 % of control
- T/C (dose: 200.0 mg/kg/injection, schedule: Q01DX005 (ip), vehicle: saline with Tween-80): 110 % of control
- T/C [4]: 112 % of control
- T/C (dose: 400.0 mg/kg/injection, schedule: Q01DX005 (ip), vehicle: saline with Tween-80): 92 % of control
- T/C [5]: 100 % of control

SMILES: CC1(C)C2CCC13CC(=O)OC3C2 (stereo not given)
- T/C (dose: 0.78 mg/kg/injection, schedule: Q01DX009 (ip), vehicle: saline): 105 % of control
- T/C (dose: 0.78 mg/kg/injection, schedule: Q04DX003 (ip), vehicle: acetone): 101 % of control
- T/C (dose: 1.56 mg/kg/injection, schedule: Q01DX009 (ip), vehicle: saline): 100 % of control
- T/C (dose: 1.56 mg/kg/injection, schedule: Q04DX003 (ip), vehicle: acetone): 92 % of control
- T/C (dose: 3.12 mg/kg/injection, schedule: Q01DX009 (ip), vehicle: saline): 102 % of control
- T/C (dose: 3.12 mg/kg/injection, schedule: Q04DX003 (ip), vehicle: acetone): 98 % of control
- T/C (dose: 4.6 mg/kg/injection, schedule: Q01DX009 (ip), vehicle: saline): 89 % of control
- T/C (dose: 7.0 mg/kg/injection, schedule: Q01DX009 (ip), vehicle: saline): 91 % of control
- T/C (dose: 10.5 mg/kg/injection, schedule: Q01DX009 (ip), vehicle: saline): 104 % of control
- T/C (dose: 15.0 mg/kg/injection, schedule: Q01DX009 (ip), vehicle: acetone): 92 % of control

SMILES: N#Cc1nc2c(nc1C#N)-c1ccccc1/C2=C1/C(=O)Cc2ccccc21
- T/C (dose: 25.0 mg/kg/injection, schedule: Q04DX002 (ip), vehicle: other): 93 % of control and 90 % of control

SMILES: COC(=O)c1ccccc1NC(=O)c1cc(C(=O)O)c(C(=O)Nc2ccccc2C(=O)OC)cc1C(=O)O
- T/C [6]: 93 % of control and 107 % of control
- T/C (dose: 100.0 mg/kg/injection, schedule: Q04DX002 (ip), vehicle: saline with Tween-80): 100 % of control and 103 % of control
- T/C [3]: 102 % of control
- T/C [7]: 97 % of control and 113 % of control
- T/C (dose: 200.0 mg/kg/injection, schedule: Q04DX002 (ip), vehicle: saline with Tween-80): 106 % of control and 109 % of control
- T/C [4]: 100 % of control
- T/C [8]: 97 % of control and 92 % of control
- T/C (dose: 400.0 mg/kg/injection, schedule: Q04DX002 (ip), vehicle: saline with Tween-80): 96 % of control and 92 % of control
- T/C [5]: 102 % of control

SMILES: CCOC(=O)c1c[nH]c2c(Cl)cccc2c1=O
- T/C (dose: 50.0 mg/kg/injection, schedule: Q01DX001 (ip), vehicle: saline): 97 % of control
- T/C [9]: 100 % of control
- T/C [10]: 94 % of control
- T/C [11]: 94 % of control

SMILES: CC(C)CC(C)OC(C[N+](=O)[O-])C(Cl)(Cl)Cl (stereo not given)
- T/C [6]: 93 % of control
- T/C [3]: 106 % of control
- T/C [4]: 104 % of control
- T/C [8]: 93 % of control
- T/C [5]: 98 % of control

SMILES: N=C(N)SCc1c(-c2ccccc2)oc(-c2ccccc2)c1CSC(=N)N
- T/C (dose: 6.25 mg/kg/injection, schedule: Q01DX009 (ip), vehicle: saline with Tween-80): 103 % of control
- T/C (dose: 12.5 mg/kg/injection, schedule: Q01DX009 (ip), vehicle: saline with Tween-80): 101 % of control
- T/C (dose: 12.5 mg/kg/injection, schedule: Q04DX003 (ip), vehicle: saline with Tween-80): 97 % of control
- T/C (dose: 25.0 mg/kg/injection, schedule: Q04DX003 (ip), vehicle: saline with Tween-80): 101 % of control

SMILES: Cc1ccc(NC(=O)Nc2cccc(Cl)c2C)cc1NC(=O)Nc1cccc(Cl)c1C
- T/C [6]: 87 % of control
- T/C [3]: 90 % of control
- T/C [7]: 87 % of control
- T/C [4]: 91 % of control
- T/C [8]: 86 % of control
- T/C [5]: 91 % of control

SMILES: COc1cc(CCl)cc(OC)c1OC
- T/C (dose: 100.0 mg/kg/injection, schedule: Q01DX009 (ip), vehicle: Klucel (hydroxypropylcellulose) (HPC)): 95 % of control
- T/C (dose: 100.0 mg/kg/injection, schedule: Q04DX003 (ip), vehicle: Klucel (hydroxypropylcellulose) (HPC)): 93 % of control
- T/C (dose: 200.0 mg/kg/injection, schedule: Q01DX009 (ip), vehicle: Klucel (hydroxypropylcellulose) (HPC)): 90 % of control
- T/C (dose: 200.0 mg/kg/injection, schedule: Q04DX003 (ip), vehicle: Klucel (hydroxypropylcellulose) (HPC)): 95 % of control
- T/C (dose: 400.0 mg/kg/injection, schedule: Q01DX009 (ip), vehicle: Klucel (hydroxypropylcellulose) (HPC)): 88 % of control
- T/C (dose: 400.0 mg/kg/injection, schedule: Q04DX003 (ip), vehicle: Klucel (hydroxypropylcellulose) (HPC)): 97 % of control

SMILES: COc1ccccc1N(N=O)C(=O)CC(C)=O
- T/C [9]: 101 % of control
- T/C [10]: 101 % of control
- T/C [11]: 101 % of control

SMILES: CC(C)CSC(C)C
- T/C [12]: 98 % of control
- T/C [6]: 96 % of control
- T/C [3]: 107 % of control
- T/C [7]: 91 % of control
- T/C [4]: 105 % of control
- T/C [5]: 87 % of control

SMILES: N#Cc1[nH]cnc1N1CC[N+](CCCl)=N1
- T/C (dose: 100.0 mg/kg/injection, schedule: Q01DX009 (ip), vehicle: saline): 104 % of control
- T/C (dose: 200.0 mg/kg/injection, schedule: Q01DX009 (ip), vehicle: saline): 103 % of control
- T/C (dose: 400.0 mg/kg/injection, schedule: Q01DX009 (ip), vehicle: saline): 95 % of control

SMILES: C(=C(/c1ccccc1)N1CCOCC1)/c1ccccc1
- T/C (dose: 100.0 mg/kg/injection, schedule: Q04DX002 (sc), vehicle: olive oil, sesame oil, peanut oil): 118 % of control
- T/C (dose: 200.0 mg/kg/injection, schedule: Q04DX002 (sc), vehicle: olive oil, sesame oil, peanut oil): 99 % of control
- T/C (dose: 400.0 mg/kg/injection, schedule: Q04DX002 (sc), vehicle: olive oil, sesame oil, peanut oil): 99 % of control

SMILES: CCCCCCCCCC(=O)c1nc(N)nc(N)n1
- T/C [12]: 105 % of control
- T/C [6]: 105 % of control
- T/C [7]: 97 % of control
